What all share (type): cell-based
The target in test [1] is T1, HER2 (Homo sapiens, UniProt P04626).
T1 construct: a human breast tumor cell line which expresses high levels of HER2 kinase; endogenous in cells; host or cells: BT-474 human breast tumor cells
Description: HER2-ELISA, whole cell HER2 activity in BT474 cells. The note with it: BT474 human breast tumor cells; serum-free; 2 h drug preincubation. The source says: (§1) The following examples illustrates the ability of the exemplary compounds to inhibit receptor tyrosine kinases, such as HER2 and/or EGFR. The following target cells were used for cellular kinase assays: NIH3T3 clone C7 (Honegger et al., supra) engineered to over-express human EGF receptor; NIH3T3 cells engineered to over-express a chimeric receptor containing the EGFR extracellular domain and the HER2 intracellular kinase domain; the human mammary carcinoma line BT474 (ATCC ATB2) expressing HER2; and the human glioblastoma line U1242 that expresses PDGFR-beta. Growth assays were carried out using human mammary epithelial SKBR3 (ATCC HTB30) cells (SKBR3 cells over-express HER2), SKOV3 (ATCC HTB77) human ovarian cancer cell line (SKOV3 cells also over-express HER2), A431 cells (A431 cells over-express EGFR) MCF7 human breast carcinoma cells, MCF7 cells overexpressing the HER2 kinase (MCF7-HER2), NIH3T3 cells, and NIH3T3 cells overexpressing the HER2 kinase (3T3-HER2.
HER2-BT474 assays measuring whole cell HER2 activity was carried out as described below:
1) The cell line used in this assay is BT-474 (ATCC HBT20), a human breast tumor cell line which expresses high levels of HER2 kinase.
2) BT-474 is grown in an incubator with 5% CO2 at 37° C. The growth media is RPMI+10% FBS+GMS-G (Gibco supplement)+Glutamine.
3) A monoclonal anti-HER2 antibody is used in ELISA. […]
(In general: ELISA stands for enzyme-linked immunosorbent assay.)

The target of test [2] is T2, PDGFR-beta (Homo sapiens, UniProt P09619).
T2 construct: the human glioblastoma line U1242 that expresses PDGFR-beta; endogenous in cells; host or cells: U1242 (U1242 MG) human glioblastoma cells
Description: PDGF-R Cellular Assay (ELISA). The note with it: human glioblastoma line U1242; PDGF-BB 100 ng/ml.
Text: as §1, with “(3T3-HER2. […]” for “(3T3-HER2.”

For test [3], the target named is T3, IGF-1 Receptor (Homo sapiens, UniProt P08069).
T3 construct: expressed in transfected cells; host or cells: 3T3 cells (3T3/IGF-1R)
The test is described as follows: Cellular IGF-1 Receptor ELISA (3T3/IGF-1R cells). The note with it: 20 nM IGF-1, serum-free, 2 h drug incubation.

In test [4] the test system is chimeric receptor containing the EGFR extracellular domain and the HER2 intracellular kinase domain. The test is described as follows: EGFR-HER2 chimeric receptor whole cell kinase assay in NIH3T3 cells (ELISA). The note with it: NIH3T3 cells with EGFR/HER2 chimeric receptor; 100 nM EGF; 2 h drug incubation; read-out: ELISA DATA HER2 - (3T3).
Text: as §1
EGFR-HER2 Chimeric Recetor
HER2 kinase activity (EGFR-3T3) in whole cells was measured as described below:
The materials and reagents are identical to these used in example 1, the EGFR whole cell kinase assay.
A. Coat ELISA plates (Corning, 96 well, Cat. #25805-96) with 05-101 antibody at 0.5 µg per well in PBS, 100 μl final volume/well, and store overnight at 4° C. […]

Test [5] concerns the target T4, EGFR (Homo sapiens, UniProt P00533).
T4 construct: expressed in transfected cells; host or cells: NIH3T3 clone C7 (EGFR/C7)
Description: EGFR Whole Cell Kinase Assay (EGFR-3T3 assay, ELISA). The note with it: NIH3T3 clone C7 over-expressing human EGF receptor; 25 nM EGF.
Text: as §1
EGFR Whole Cell Kinase Assay
EGFR kinase activity (EGFR-3T3 assay) in whole cells was measured as described below:
A. Coat ELISA plates (Corning, 96 well, Cat. #25805-96) with 05-101 antibody at 0.5 μg per well in PBS, 150 μl final volume/well, and store overnight at 4° C. Coated plates are good for up to 10 days when stored at 4° C. […]

T1 sequence (P04626 23-1255): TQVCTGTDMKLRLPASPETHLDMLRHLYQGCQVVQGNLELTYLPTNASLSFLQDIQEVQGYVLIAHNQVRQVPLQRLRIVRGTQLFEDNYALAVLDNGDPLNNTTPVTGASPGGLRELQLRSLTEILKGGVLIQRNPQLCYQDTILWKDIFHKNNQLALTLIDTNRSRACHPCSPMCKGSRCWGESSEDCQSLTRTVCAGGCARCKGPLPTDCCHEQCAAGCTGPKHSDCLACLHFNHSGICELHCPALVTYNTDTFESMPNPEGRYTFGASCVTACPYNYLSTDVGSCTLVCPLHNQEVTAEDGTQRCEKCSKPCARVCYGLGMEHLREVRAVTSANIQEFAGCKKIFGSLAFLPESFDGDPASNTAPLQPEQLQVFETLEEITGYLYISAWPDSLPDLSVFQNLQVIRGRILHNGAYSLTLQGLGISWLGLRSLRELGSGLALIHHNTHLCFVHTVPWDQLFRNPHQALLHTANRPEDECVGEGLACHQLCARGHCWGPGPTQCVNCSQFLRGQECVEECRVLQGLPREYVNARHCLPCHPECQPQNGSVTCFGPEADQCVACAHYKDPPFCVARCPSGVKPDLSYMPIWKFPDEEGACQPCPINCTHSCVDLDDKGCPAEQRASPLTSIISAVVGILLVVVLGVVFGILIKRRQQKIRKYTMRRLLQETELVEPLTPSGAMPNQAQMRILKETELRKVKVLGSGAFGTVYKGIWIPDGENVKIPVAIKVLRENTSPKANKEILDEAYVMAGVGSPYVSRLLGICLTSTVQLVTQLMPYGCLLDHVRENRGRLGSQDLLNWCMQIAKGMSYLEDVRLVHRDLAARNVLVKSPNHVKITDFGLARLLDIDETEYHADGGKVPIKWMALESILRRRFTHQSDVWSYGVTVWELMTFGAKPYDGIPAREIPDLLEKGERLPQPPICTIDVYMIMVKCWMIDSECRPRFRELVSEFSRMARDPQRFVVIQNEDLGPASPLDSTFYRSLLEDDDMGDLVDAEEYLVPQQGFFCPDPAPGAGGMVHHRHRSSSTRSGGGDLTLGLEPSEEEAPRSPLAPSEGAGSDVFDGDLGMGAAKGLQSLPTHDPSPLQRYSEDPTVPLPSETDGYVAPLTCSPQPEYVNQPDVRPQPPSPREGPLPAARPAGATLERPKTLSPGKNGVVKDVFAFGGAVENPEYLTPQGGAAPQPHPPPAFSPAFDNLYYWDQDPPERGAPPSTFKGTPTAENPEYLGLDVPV
T2 sequence (P09619 33-1106): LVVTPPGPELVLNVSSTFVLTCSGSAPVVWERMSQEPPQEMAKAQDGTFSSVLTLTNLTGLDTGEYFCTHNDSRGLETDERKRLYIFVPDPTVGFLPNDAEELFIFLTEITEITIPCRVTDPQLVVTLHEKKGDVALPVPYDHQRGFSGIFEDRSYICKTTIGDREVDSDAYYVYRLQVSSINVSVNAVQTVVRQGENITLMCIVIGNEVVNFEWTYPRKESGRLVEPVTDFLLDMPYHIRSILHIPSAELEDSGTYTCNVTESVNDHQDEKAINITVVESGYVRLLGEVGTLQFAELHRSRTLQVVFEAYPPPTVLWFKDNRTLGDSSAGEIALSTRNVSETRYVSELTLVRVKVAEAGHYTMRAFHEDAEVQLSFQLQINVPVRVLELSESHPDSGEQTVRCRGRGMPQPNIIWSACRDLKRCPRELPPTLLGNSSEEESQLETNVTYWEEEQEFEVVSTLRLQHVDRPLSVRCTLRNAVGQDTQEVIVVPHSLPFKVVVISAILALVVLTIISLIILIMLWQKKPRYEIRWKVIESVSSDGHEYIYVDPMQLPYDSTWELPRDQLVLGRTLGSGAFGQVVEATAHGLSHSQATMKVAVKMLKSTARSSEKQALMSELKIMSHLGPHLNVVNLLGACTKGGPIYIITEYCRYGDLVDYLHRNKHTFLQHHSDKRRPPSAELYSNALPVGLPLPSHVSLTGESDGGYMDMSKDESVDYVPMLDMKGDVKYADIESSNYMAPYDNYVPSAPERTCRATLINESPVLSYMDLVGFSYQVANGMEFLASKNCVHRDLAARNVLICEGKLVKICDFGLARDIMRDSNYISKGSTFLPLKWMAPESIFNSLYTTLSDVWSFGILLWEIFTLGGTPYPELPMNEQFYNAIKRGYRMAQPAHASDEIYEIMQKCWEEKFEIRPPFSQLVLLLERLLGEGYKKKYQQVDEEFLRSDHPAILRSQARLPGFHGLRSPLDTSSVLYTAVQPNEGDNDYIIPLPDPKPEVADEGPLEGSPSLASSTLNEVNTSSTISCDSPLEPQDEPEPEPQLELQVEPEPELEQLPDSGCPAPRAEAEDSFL
T3 sequence (P08069 31-1367): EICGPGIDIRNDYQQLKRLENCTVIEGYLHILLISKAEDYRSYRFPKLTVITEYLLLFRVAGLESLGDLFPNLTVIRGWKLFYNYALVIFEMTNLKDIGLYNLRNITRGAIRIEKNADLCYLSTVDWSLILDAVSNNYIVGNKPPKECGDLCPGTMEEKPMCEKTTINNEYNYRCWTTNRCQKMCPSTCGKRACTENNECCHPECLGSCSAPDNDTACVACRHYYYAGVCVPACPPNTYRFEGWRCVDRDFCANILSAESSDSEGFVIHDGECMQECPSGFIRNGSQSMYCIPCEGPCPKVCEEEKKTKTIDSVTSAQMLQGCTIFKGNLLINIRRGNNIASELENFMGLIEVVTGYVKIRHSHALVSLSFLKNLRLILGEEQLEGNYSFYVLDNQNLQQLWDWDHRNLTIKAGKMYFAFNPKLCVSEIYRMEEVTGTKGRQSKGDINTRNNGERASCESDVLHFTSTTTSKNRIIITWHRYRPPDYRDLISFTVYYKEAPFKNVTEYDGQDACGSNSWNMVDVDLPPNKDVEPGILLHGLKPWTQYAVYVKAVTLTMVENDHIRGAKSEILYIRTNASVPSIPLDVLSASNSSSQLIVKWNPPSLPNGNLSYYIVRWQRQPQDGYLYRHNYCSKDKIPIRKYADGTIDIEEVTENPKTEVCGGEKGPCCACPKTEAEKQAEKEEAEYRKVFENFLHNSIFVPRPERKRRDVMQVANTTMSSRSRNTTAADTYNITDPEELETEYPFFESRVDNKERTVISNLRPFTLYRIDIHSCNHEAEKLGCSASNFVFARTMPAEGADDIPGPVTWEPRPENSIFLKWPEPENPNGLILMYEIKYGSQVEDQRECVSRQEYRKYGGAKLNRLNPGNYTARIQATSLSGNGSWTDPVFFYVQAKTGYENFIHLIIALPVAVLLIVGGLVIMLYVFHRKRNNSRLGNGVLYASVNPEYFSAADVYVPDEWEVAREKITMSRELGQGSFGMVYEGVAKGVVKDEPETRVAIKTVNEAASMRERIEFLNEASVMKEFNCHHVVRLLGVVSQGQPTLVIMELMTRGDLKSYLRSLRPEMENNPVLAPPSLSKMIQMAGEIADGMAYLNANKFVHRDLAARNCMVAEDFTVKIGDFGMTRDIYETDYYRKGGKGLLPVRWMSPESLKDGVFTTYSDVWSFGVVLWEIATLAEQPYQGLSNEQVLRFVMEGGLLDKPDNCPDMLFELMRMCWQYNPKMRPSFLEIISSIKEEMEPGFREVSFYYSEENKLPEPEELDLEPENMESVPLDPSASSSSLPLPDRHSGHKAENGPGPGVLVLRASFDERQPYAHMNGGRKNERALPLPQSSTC
T4 sequence (P00533 25-1210): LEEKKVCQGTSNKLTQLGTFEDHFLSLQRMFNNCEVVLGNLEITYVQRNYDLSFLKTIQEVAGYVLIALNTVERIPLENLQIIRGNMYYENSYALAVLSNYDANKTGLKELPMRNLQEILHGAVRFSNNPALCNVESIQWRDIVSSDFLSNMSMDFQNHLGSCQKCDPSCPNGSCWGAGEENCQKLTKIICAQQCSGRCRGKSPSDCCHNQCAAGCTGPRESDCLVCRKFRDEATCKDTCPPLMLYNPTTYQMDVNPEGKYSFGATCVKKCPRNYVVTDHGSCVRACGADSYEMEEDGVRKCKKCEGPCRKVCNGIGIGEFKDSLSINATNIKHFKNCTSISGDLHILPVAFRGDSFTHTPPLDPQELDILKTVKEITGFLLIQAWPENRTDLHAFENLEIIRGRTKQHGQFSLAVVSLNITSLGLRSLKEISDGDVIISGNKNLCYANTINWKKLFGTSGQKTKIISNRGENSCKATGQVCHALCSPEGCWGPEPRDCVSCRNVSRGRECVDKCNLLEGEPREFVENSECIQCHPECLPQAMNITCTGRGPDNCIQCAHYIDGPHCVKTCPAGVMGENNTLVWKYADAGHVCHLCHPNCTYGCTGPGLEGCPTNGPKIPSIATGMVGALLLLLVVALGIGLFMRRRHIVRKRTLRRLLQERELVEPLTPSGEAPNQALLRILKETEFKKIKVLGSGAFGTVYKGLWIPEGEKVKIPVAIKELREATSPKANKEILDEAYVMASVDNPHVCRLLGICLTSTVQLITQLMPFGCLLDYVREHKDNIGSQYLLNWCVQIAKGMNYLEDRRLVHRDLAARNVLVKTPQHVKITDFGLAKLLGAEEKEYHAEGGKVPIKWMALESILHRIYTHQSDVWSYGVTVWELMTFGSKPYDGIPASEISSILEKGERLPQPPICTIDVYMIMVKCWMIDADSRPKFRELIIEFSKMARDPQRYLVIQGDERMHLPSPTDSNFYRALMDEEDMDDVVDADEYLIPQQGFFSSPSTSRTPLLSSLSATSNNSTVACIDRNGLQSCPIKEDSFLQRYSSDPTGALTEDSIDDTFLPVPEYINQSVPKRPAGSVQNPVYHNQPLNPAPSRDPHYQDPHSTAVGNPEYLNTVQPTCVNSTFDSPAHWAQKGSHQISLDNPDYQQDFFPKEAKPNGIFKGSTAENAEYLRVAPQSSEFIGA

On to `COC(=O)C(c1cccc(Br)c1)c1ncnc2cc(OC)c(OC)cc12` (centres unmarked) [Compound D002], for which the IC50 in test [1] is over 100 µM; in test [2] it was over 100 µM; in test [3], over 50 µM; in test [4] it was over 50 µM; in test [5] it was over 100 µM.

(Values after patent US6103728A, “Quinazolines” (Sugen, Inc., priority 1997, dated 2000).)
